Assay results taken from the supplement of paper PMC5908809.

Experiments:
[1] = test system: normal NK cells expanded with K562-aAPC; test: percent inhibition of viability; higher = more inhibition; details: 72 h, IL-2 2.5 ng/mL
Experimental: (§1)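 Drug sensitivity and resistance testing on K562-aAPC-expanded normal NK cells: 5 concentrations (10-fold steps over a 10,000-fold range), 72 h at 37 °C, viability by CellTiter-Glo normalised to DMSO and benzethonium chloride controls; DSS from the fitted curve.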

DERL-7 (IL-2 2.5 ng/mL) [2] = test: as above; details: 72 h
YT (IL-2 2.5 ng/mL) [3] = test: as above; details: 72 h
IMC-1 (IL-2 20 ng/mL) [4] = test: as above; details: 72 h
NKL (IL-2 2.5 ng/mL) [5] = test: as above; details: 72 h
KAI3 (IL-2 2.5 ng/mL) [6] = test: as above; details: 72 h
[7] = test system: normal primary NK cells, pool 1 (3 donors), resting (IL-2 0 ng/mL); test: as above; details: 72 h
[8] = test system: normal primary NK cells, pool 1 (3 donors) (IL-2 2.5 ng/mL); test: as above; details: 72 h
[9] = test system: normal primary NK cells, pool 3 (3 donors) (IL-2 2.5 ng/mL); test: as above; details: 72 h
SNK-6 (IL-2 2.5 ng/mL) [10] = test: as above; details: 72 h
KHYG-1 (IL-2 2.5 ng/mL) [11] = test: as above; details: 72 h
NK-92 (IL-2 2.5 ng/mL) [12] = test: as above; details: 72 h
NK-YS (IL-2 2.5 ng/mL) [13] = test: as above; details: 72 h
[14] = test system: normal primary NK cells, pool 2 (3 donors) (IL-2 2.5 ng/mL); test: as above; details: 72 h
[15] = test system: normal NK cells expanded with K562-aAPC; test: drug sensitivity score (DSS) (DSS units); higher = more sensitive; extreme values may be limits of the assay; details: 72 h; IL-2 2.5 ng/mL
Experimental: as §1

DERL-7 (IL-2 2.5 ng/mL) [16] = test: as above; details: 72 h
YT (IL-2 2.5 ng/mL) [17] = test: as above; details: 72 h
IMC-1 (IL-2 20 ng/mL) [18] = test: as above; details: 72 h
NKL (IL-2 2.5 ng/mL) [19] = test: as above; details: 72 h
KAI3 (IL-2 2.5 ng/mL) [20] = test: as above; details: 72 h
[21] = test system: normal primary NK cells, pool 1 (3 donors), resting (IL-2 0 ng/mL); test: as above; details: 72 h
[22] = test system: normal primary NK cells, pool 1 (3 donors) (IL-2 2.5 ng/mL); test: as above; details: 72 h
[23] = test system: normal primary NK cells, pool 3 (3 donors) (IL-2 2.5 ng/mL); test: as above; details: 72 h
SNK-6 (IL-2 2.5 ng/mL) [24] = test: as above; details: 72 h
KHYG-1 (IL-2 2.5 ng/mL) [25] = test: as above; details: 72 h
NK-92 (IL-2 2.5 ng/mL) [26] = test: as above; details: 72 h
NK-YS (IL-2 2.5 ng/mL) [27] = test: as above; details: 72 h
[28] = test system: normal primary NK cells, pool 2 (3 donors) (IL-2 2.5 ng/mL); test: as above; details: 72 h

NC(=O)c1ccc(I)c([N+](=O)[O-])c1 [Iniparib] (max concentration tested 10000 nM)
percent inhibition of viability [%]
Details | 1 nM | 10 nM | 100 nM | 1000 nM | 10000 nM
DERL-7 (IL-2 2.5 ng/mL) [2] | -3.85 | -2.44 | 3.9 | -0.89 | 28.1
IMC-1 (IL-2 20 ng/mL) [4] | 2.82 | 5.28 | 4.37 | 4.53 | -3.7
KAI3 (IL-2 2.5 ng/mL) [6] | 11.4 | 8.8 | 12.9 | 11.2 | 19
KHYG-1 (IL-2 2.5 ng/mL) [11] | -2.79 | -0.73 | -1.94 | 0.34 | 2.04
NK-92 (IL-2 2.5 ng/mL) [12] | 8.25 | 4.1 | 12.8 | 3.36 | 7.28
NK-YS (IL-2 2.5 ng/mL) [13] | -0.99 | 0.64 | -4.34 | -1.33 | -4.16
NKL (IL-2 2.5 ng/mL) [5] | -0.1 | 1.47 | 0.26 | -4.81 | -5.47
SNK-6 (IL-2 2.5 ng/mL) [10] | 2.09 | 3.24 | 11.9 | 10.5 | 23.6
YT (IL-2 2.5 ng/mL) [3] | 7.63 | 6.75 | 4.79 | 6.7 | 5.3
[1] | 7.03 | 0.05 | 0.33 | 1.63 | 13.4
[7] | -2.43 | -4.44 | -6.4 | 24.9 | 78.9
[8] | 8.54 | 2.74 | 4.22 | 12.3 | 53.8
[9] | -1.14 | -4.93 | 1.99 | -1.49 | 19.3
[14] | -8.36 | -7.08 | 1.43 | -0.1 | 30.1

Details | drug sensitivity score
DERL-7 (IL-2 2.5 ng/mL) [16] | 1.1
IMC-1 (IL-2 20 ng/mL) [18] | 0
KAI3 (IL-2 2.5 ng/mL) [20] | 0
KHYG-1 (IL-2 2.5 ng/mL) [25] | 0
NK-92 (IL-2 2.5 ng/mL) [26] | 0
NK-YS (IL-2 2.5 ng/mL) [27] | 0
NKL (IL-2 2.5 ng/mL) [19] | 0
SNK-6 (IL-2 2.5 ng/mL) [24] | 2.01
YT (IL-2 2.5 ng/mL) [17] | 0
[15] | 0.24
[21] | 7.97
[22] | 4.84
[23] | 0.46
[28] | 1.31
